Results on two compounds are retold here after publication doi:10.1101/2024.08.13.607848, “Bibacillin 1: A two-component lantibiotic from Bacillus thuringiensis” (bioRxiv, 2024).

Series [1] has as its system Micrococcus luteus ATCC 4698. The series is described as follows: Agar diffusion assay using bacteria. The format is cell-based. The method, then: Fig. 4. […] Cytolysin was used as a positive control.
Overnight cultures of bacteria were prepared according to Table S1. The OD600 of each culture was determined and adjusted to a value of 1 using the appropriate growth media. Molten growth media containing 0.7% agar was cooled to 50 °C and inoculated with 50 μL of adjusted overnight culture for every 5 mL of molten growth media. The inoculated molten growth media was immediately poured onto a pre-warmed agar (2%) plate prepared using the same media. The plate was allowed to set for 30 min at room temperature before adding 3 μL of peptide stock diluted in PBS to 100 μM. The deposited peptide solutions were allowed to stand on the agar plate for 30 min before incubation for 16–36 h at the optimum growth temperature until the desired cell density was achieved.
On the technique in general: A growth-free zone around the sample is the usual read-out of agar diffusion tests.

The nature of series [2]: SDS-PAGE analysis of oligomerization. In kind it is physicochemical. As to conditions: in the presence of SDS. An excerpt: Using agar plates seeded with E. faecalis pXL110 and the colorimetric LacZ substrate X-gal, LacZ expression was visualized. Consistent with previous reports,[43] […] Comparing the structures of CylLS” and Bib1β (Fig. 1A and 2B), we speculated that the presence of Ser16 in Bib1β rather than the hydrophobic residues present in CylLS” in this region might interfere with CylR1 binding possibly due to hydrophobic mismatching. […] To determine whether bibacillin 1 could quorum sense through an aggregation mechanism, the aggregation propensity of bibacillin 1 was analyzed using SDS-PAGE and dynamic light scattering (DLS). […] Since SDS can influence aggregation, the aggregation of bibacillin 1 was further investigated under SDS-free conditions using DLS (Fig. 6B). Bib1α exists in solution as aggregates that are 159 nm in diameter on average (PDI = 0.224) and Bib1β forms aggregates that are 291 nm in diameter on average (PDI = 0.384). […] Confirmation of this hypothesis will require in vitro studies with Bib1R1/R2.

Another series deals with rabbit erythrocytes. In kind it is cell-based. As to conditions: total peptide concentration 2 µM; 1 h at 37 °C; hemoglobin release, absorbance at 415 nm; mixture 1:1. The method, then: Solution phase hemolysis assays were conducted as described previously.[35]
Fig. S2. […] A) Hemoglobin release […]
erythrocytes were treated with 0.03% v/v triton X-100. Negative control contained only buffer. A total peptide concentration of 2 µM was used in each case. B) Extent of hemolysis after treating freshly washed rabbit erythrocytes with 1:1 of CylLS”:CylLL” at 37 ̊C for 1 h. Data was fit to a […]
(1 picture or pasted object on this page, not shown here)

Series [3] can be described thus: In vitro pore formation assay, pyranine-encapsulated liposomes. As to conditions: total peptide concentration 5 μM; DOPC liposomes containing or lacking 0.1 mol% lipid II; mixture 1:1. Here is the method: To investigate the lipid II-dependence of the pore formation activity of bibacillin 1, pyranine-encapsulated liposomes were prepared containing or lacking lipid II and pore formation was monitored via pH-dependent pyranine fluorescence.[70]
This assay was conducted as described elsewhere.[70]

Turning to `C=C(NC(=O)[C@H](C)NC(=O)[C@@H]1CS[C@H](C)[C@H](N)C(=O)NC(=C)C(=O)N2CCC[C@H]2C(=O)N[C@@H](C)C(=O)N1)C(=O)N[C@@H](C)C(=O)N[C@@H](CCSC)C(=O)N[C@@H](CC(C)C)C(=O)N[C@@H](Cc1ccc(O)cc1)C(=O)N[C@@H](CC(C)C)C(=O)N[C@@H](CCC(N)=O)C(=O)NCC(=O)N[C@H](C(=O)NC(=CC)C(=O)N[C@H](C(=O)NC(=C)C(=O)N[C@@H](CC(C)C)C(=O)NCC(=O)N[C@@H](CC(C)C)C(=O)N[C@@H]1CSC[C@@H](C(=O)O)NC(=O)[C@H](Cc2c[nH]cn2)NC(=O)[C@H](CCSC)NC(=O)[C@H](CCCNC(=N)N)NC1=O)C(C)C)C(C)C` [Bib1α], the “Growth inhibition in agar diffusion assay” value in series [1] was “weak individual activity”. The “Oligomeric state by SDS-PAGE” value in series [2] was “oligomeric in the presence of SDS”. The “Hemolysis in solution phase assay” value with rabbit erythrocytes is reported as “did not induce hemolysis”. Moreover, the “Pore formation activity in liposomes, pyranine fluorescence” value in series [3] was “pore formation activity that was somewhat enhanced by the addition of lipid II”.
As for `CC=C1NC(=O)[C@@H](N)[C@@H](C)SC[C@@H](C(=O)N[C@@H](C)C(=O)N[C@H](C(=O)NCC(=O)NCC(=O)NCC(=O)N[C@@H](CC(C)C)C(=O)N[C@@H](C)C(=O)N[C@@H](CC(C)C)C(=O)NCC(=O)N[C@@H](Cc2ccccc2)C(=O)N[C@@H](CO)C(=O)N[C@H](C(=O)N[C@@H]2CSC[C@@H](C(=O)O)NC(=O)[C@H](Cc3ccc(O)cc3)NC(=O)[C@H]([C@@H](C)CC)NC(=O)[C@H](CCCCN)NC2=O)[C@@H](C)CC)[C@@H](C)CC)NC(=O)[C@H](C(C)C)NC(=O)[C@@H]2CCCN2C1=O` [Bib1β], the “Growth inhibition in agar diffusion assay” value in series [1] is listed as “weak individual activity”. Besides, the “Oligomeric state by SDS-PAGE” value in series [2] is reported as “oligomeric in the presence of SDS”. The “Hemolysis in solution phase assay” value in the series with rabbit erythrocytes was “did not induce hemolysis”.
